From PubChem BioAssay AID1745844 (Carcinogenic Potency Database (CPDB), 2022)
Several values for one entry are separate records, joined by “and”; a condition that tells them apart may be missing. Equal values may be shown once.

Tested on: rodent lifetime carcinogenesis bioassay, tumor incidence TD50
Experiment: chronic cancer bioassays in animals – CPDB, compiled studies (AID 1745844)
Conditions: inhaled

Q: With `FC(F)=C(F)F` as the compound, how does the TD50 (mouse, strain B6C3F1, females, site: Harderian gland, lesion: adenoma, dosed 95 weeks, study length 95 weeks) read?
A: 1470 mg/kg/day

Q: What about the TD50 (mouse, strain B6C3F1, females, site: all sites + liver, lesion: histiocytic sarcoma + hemangioma + hemangiosarcoma + hepatocellular adenoma + hepatocellular carcinoma, dosed 95 weeks, study length 95 weeks) of the same compound?
A: 54 mg/kg/day

Q: What about the TD50 (mouse, strain B6C3F1, females, site: all sites, lesion: hemangioma + hemangiosarcoma, dosed 95 weeks, study length 95 weeks) of the same compound?
A: 61.3 mg/kg/day

Q: What about the TD50 (mouse, strain B6C3F1, females, site: all sites, lesion: hemangioma, dosed 95 weeks, study length 95 weeks) of the same compound?
A: 835 mg/kg/day

Q: What about the TD50 (mouse, strain B6C3F1, females, site: all sites, lesion: hemangiosarcoma, dosed 95 weeks, study length 95 weeks) of the same compound?
A: 66.5 mg/kg/day

Q: What about the TD50 (mouse, strain B6C3F1, females, site: all sites, lesion: histiocytic sarcoma, dosed 95 weeks, study length 95 weeks) of the same compound?
A: 176 mg/kg/day

Q: And the TD50 (mouse, strain B6C3F1, females, site: any site (literature study), lesion: several types, types named in the paper, dosed 95 weeks, study length 95 weeks)?
A: 48.4 mg/kg/day

Q: And the TD50 (mouse, strain B6C3F1, females, site: liver, lesion: hemangioma + hemangiosarcoma, dosed 95 weeks, study length 95 weeks)?
A: 61.3 mg/kg/day

Q: What about the TD50 (mouse, strain B6C3F1, females, site: liver, lesion: hemangioma, dosed 95 weeks, study length 95 weeks) of the same compound?
A: 530 mg/kg/day

Q: And the TD50 (mouse, strain B6C3F1, females, site: liver, lesion: hemangiosarcoma, dosed 95 weeks, study length 95 weeks)?
A: 66.5 mg/kg/day

Q: What about the TD50 (mouse, strain B6C3F1, females, site: liver, lesion: hepatocellular adenoma + hepatoblastoma + hepatocellular carcinoma, dosed 95 weeks, study length 95 weeks) of the same compound?
A: 63.3 mg/kg/day

Q: And the TD50 (mouse, strain B6C3F1, females, site: liver, lesion: hepatocellular adenoma + hepatocellular carcinoma, dosed 95 weeks, study length 95 weeks)?
A: 63.3 mg/kg/day

Q: And the TD50 (mouse, strain B6C3F1, females, site: liver, lesion: hepatocellular adenoma, dosed 95 weeks, study length 95 weeks)?
A: 217 mg/kg/day

Q: What about the TD50 (mouse, strain B6C3F1, females, site: liver, lesion: hepatocellular carcinoma, dosed 95 weeks, study length 95 weeks) of the same compound?
A: 80.8 mg/kg/day

Q: What about the TD50 (mouse, strain B6C3F1, females, site: lung, lesion: alveolar/bronchiolar adenoma + alveolar/bronchiolar carcinoma + carcinoma, dosed 95 weeks, study length 95 weeks) of the same compound?
A: 1640 mg/kg/day

Q: What about the TD50 (mouse, strain B6C3F1, females, site: lung, lesion: alveolar/bronchiolar adenoma + alveolar/bronchiolar carcinoma, dosed 95 weeks, study length 95 weeks) of the same compound?
A: 1010 mg/kg/day

Q: And the TD50 (mouse, strain B6C3F1, females, site: pituitary gland, lesion: pars distalis adenoma, dosed 95 weeks, study length 95 weeks)?
A: 1450 mg/kg/day

Q: What about the TD50 (mouse, strain B6C3F1, males, site: Harderian gland, lesion: adenoma + carcinoma, dosed 95 weeks, study length 95 weeks) of the same compound?
A: 1270 mg/kg/day

Q: What about the TD50 (mouse, strain B6C3F1, males, site: Harderian gland, lesion: adenoma, dosed 95 weeks, study length 95 weeks) of the same compound?
A: 1390 mg/kg/day

Q: What about the TD50 (mouse, strain B6C3F1, males, site: all sites + liver, lesion: histiocytic sarcoma + hemangioma + hemangiosarcoma + hepatocellular adenoma + hepatocellular carcinoma, dosed 95 weeks, study length 95 weeks) of the same compound?
A: 71.6 mg/kg/day

Q: What about the TD50 (mouse, strain B6C3F1, males, site: all sites, lesion: hemangioma + hemangiosarcoma, dosed 95 weeks, study length 95 weeks) of the same compound?
A: 88.3 mg/kg/day

Q: And the TD50 (mouse, strain B6C3F1, males, site: all sites, lesion: hemangioma, dosed 95 weeks, study length 95 weeks)?
A: 297 mg/kg/day

Q: What about the TD50 (mouse, strain B6C3F1, males, site: all sites, lesion: hemangiosarcoma, dosed 95 weeks, study length 95 weeks) of the same compound?
A: 109 mg/kg/day

Q: What about the TD50 (mouse, strain B6C3F1, males, site: all sites, lesion: histiocytic sarcoma, dosed 95 weeks, study length 95 weeks) of the same compound?
A: 429 mg/kg/day

Q: And the TD50 (mouse, strain B6C3F1, males, site: any site (literature study), lesion: several types, types named in the paper, dosed 95 weeks, study length 95 weeks)?
A: 69.9 mg/kg/day

Q: What about the TD50 (mouse, strain B6C3F1, males, site: liver, lesion: hemangioma + hemangiosarcoma, dosed 95 weeks, study length 95 weeks) of the same compound?
A: 87 mg/kg/day

Q: And the TD50 (mouse, strain B6C3F1, males, site: liver, lesion: hemangioma, dosed 95 weeks, study length 95 weeks)?
A: 308 mg/kg/day

Q: What about the TD50 (mouse, strain B6C3F1, males, site: liver, lesion: hemangiosarcoma, dosed 95 weeks, study length 95 weeks) of the same compound?
A: 108 mg/kg/day

Q: And the TD50 (mouse, strain B6C3F1, males, site: liver, lesion: hepatocellular adenoma + hepatoblastoma + hepatocellular carcinoma, dosed 95 weeks, study length 95 weeks)?
A: 91 mg/kg/day

Q: What about the TD50 (mouse, strain B6C3F1, males, site: liver, lesion: hepatocellular adenoma + hepatocellular carcinoma, dosed 95 weeks, study length 95 weeks) of the same compound?
A: 91 mg/kg/day

Q: And the TD50 (mouse, strain B6C3F1, males, site: liver, lesion: hepatocellular adenoma, dosed 95 weeks, study length 95 weeks)?
A: 222 mg/kg/day

Q: And the TD50 (mouse, strain B6C3F1, males, site: liver, lesion: hepatocellular carcinoma, dosed 95 weeks, study length 95 weeks)?
A: 190 mg/kg/day

Q: What about the TD50 (mouse, strain B6C3F1, males, site: lung, lesion: alveolar/bronchiolar adenoma + alveolar/bronchiolar carcinoma + carcinoma, dosed 95 weeks, study length 95 weeks) of the same compound?
A: 216 mg/kg/day

Q: And the TD50 (mouse, strain B6C3F1, males, site: lung, lesion: alveolar/bronchiolar adenoma + alveolar/bronchiolar carcinoma, dosed 95 weeks, study length 95 weeks)?
A: 220 mg/kg/day

Q: What about the TD50 (mouse, strain B6C3F1, males, site: lung, lesion: alveolar/bronchiolar adenoma, dosed 95 weeks, study length 95 weeks) of the same compound?
A: 348 mg/kg/day

Q: What about the TD50 (mouse, strain B6C3F1, males, site: lung, lesion: alveolar/bronchiolar carcinoma + carcinoma, dosed 95 weeks, study length 95 weeks) of the same compound?
A: 830 mg/kg/day

Q: What about the TD50 (mouse, strain B6C3F1, males, site: thyroid gland, lesion: follicular-cell adenoma + follicular-cell carcinoma, dosed 95 weeks, study length 95 weeks) of the same compound?
A: 988 mg/kg/day

Q: And the TD50 (mouse, strain B6C3F1, males, site: thyroid gland, lesion: follicular-cell adenoma, dosed 95 weeks, study length 95 weeks)?
A: 1440 mg/kg/day

Q: And the TD50 (rat, strain Fischer 344, females, site: all sites + liver, lesion: mononuclear-cell leukemia + hemangiosarcoma + hepatocellular adenoma + hepatocellular carcinoma, dosed 103 weeks, study length 104 weeks)?
A: 56.3 mg/kg/day

Q: What about the TD50 (rat, strain Fischer 344, females, site: all sites, lesion: hemangiosarcoma, dosed 103 weeks, study length 104 weeks) of the same compound?
A: 886 mg/kg/day

Q: What about the TD50 (rat, strain Fischer 344, females, site: all sites, lesion: mononuclear-cell leukemia, dosed 103 weeks, study length 104 weeks) of the same compound?
A: 228 mg/kg/day

Q: And the TD50 (rat, strain Fischer 344, females, site: any site (literature study), lesion: several types, types named in the paper, dosed 103 weeks, study length 104 weeks)?
A: 287 mg/kg/day

Q: And the TD50 (rat, strain Fischer 344, females, site: kidney, lesion: tubule adenoma + tubule carcinoma, dosed 103 weeks, study length 104 weeks)?
A: 958 mg/kg/day and 1310 mg/kg/day

Q: What about the TD50 (rat, strain Fischer 344, females, site: kidney, lesion: tubule adenoma, dosed 103 weeks, study length 104 weeks) of the same compound?
A: 1510 mg/kg/day

Q: And the TD50 (rat, strain Fischer 344, females, site: kidney, lesion: tubule carcinoma, dosed 103 weeks, study length 104 weeks)?
A: 7380 mg/kg/day

Q: What about the TD50 (rat, strain Fischer 344, females, site: liver, lesion: hemangiosarcoma, dosed 103 weeks, study length 104 weeks) of the same compound?
A: 886 mg/kg/day

Q: What about the TD50 (rat, strain Fischer 344, females, site: liver, lesion: hepatocellular adenoma + hepatoblastoma + hepatocellular carcinoma, dosed 103 weeks, study length 104 weeks) of the same compound?
A: 156 mg/kg/day

Q: What about the TD50 (rat, strain Fischer 344, females, site: liver, lesion: hepatocellular adenoma + hepatocellular carcinoma, dosed 103 weeks, study length 104 weeks) of the same compound?
A: 156 mg/kg/day

Q: And the TD50 (rat, strain Fischer 344, females, site: liver, lesion: hepatocellular adenoma, dosed 103 weeks, study length 104 weeks)?
A: 528 mg/kg/day

Q: And the TD50 (rat, strain Fischer 344, females, site: liver, lesion: hepatocellular carcinoma, dosed 103 weeks, study length 104 weeks)?
A: 251 mg/kg/day

Q: And the TD50 (rat, strain Fischer 344, males, site: all sites, lesion: mononuclear-cell leukemia, dosed 103 weeks, study length 104 weeks)?
A: 59.7 mg/kg/day

Q: And the TD50 (rat, strain Fischer 344, males, site: any site (literature study), lesion: several types, types named in the paper, dosed 103 weeks, study length 104 weeks)?
A: 35.4 mg/kg/day

Q: And the TD50 (rat, strain Fischer 344, males, site: kidney, lesion: renal tubule adenoma, bilateral + tubule adenoma + tubule carcinoma, dosed 103 weeks, study length 104 weeks)?
A: 292 mg/kg/day and 367 mg/kg/day

Q: What about the TD50 (rat, strain Fischer 344, males, site: kidney, lesion: renal tubule adenoma, bilateral + tubule adenoma, dosed 103 weeks, study length 104 weeks) of the same compound?
A: 242 mg/kg/day and 334 mg/kg/day

Q: What about the TD50 (rat, strain Fischer 344, males, site: liver, lesion: hepatocellular adenoma + hepatoblastoma + hepatocellular carcinoma, dosed 103 weeks, study length 104 weeks) of the same compound?
A: 81.6 mg/kg/day

Q: And the TD50 (rat, strain Fischer 344, males, site: liver, lesion: hepatocellular adenoma + hepatocellular carcinoma, dosed 103 weeks, study length 104 weeks)?
A: 81.6 mg/kg/day

Q: What about the TD50 (rat, strain Fischer 344, males, site: liver, lesion: hepatocellular adenoma, dosed 103 weeks, study length 104 weeks) of the same compound?
A: 136 mg/kg/day

Q: What about the TD50 (rat, strain Fischer 344, males, site: liver, lesion: hepatocellular carcinoma, dosed 103 weeks, study length 104 weeks) of the same compound?
A: 163 mg/kg/day

Q: What about the TD50 (rat, strain Fischer 344, males, site: testis, lesion: interstitial-cell adenoma, bilateral + interstitial-cell adenoma, dosed 103 weeks, study length 104 weeks) of the same compound?
A: 27.5 mg/kg/day
